# In patent US5208246A, “Tetralones with pharmacological activity” (J. Uriach & Cia., priority 1991, dated 1993):
# Tests used:
# [1] = test system: portal vein isolated from rat; experiment: Test 1: Inhibition of the contraction induced by noradrenaline in portal vein isolated from rat; details: 0.5 h
# Description: Test 1: Inhibition of the contraction induced by noradrenaline in portal vein isolated from rat.
# Portal vein was extracted from adult male rats (between 200 and 250 g of body weight), which had been stunned by a blow in the head. Portal vein was installed into an isolated organ bath (Letica) containing a physiological saline solution (Hamilton et al., Br. J. Pharmacol., 1986, 103-111) at 37° C. and a gas bubbler (5% CO2 and 95% O2). Contractions were induced by noradrenaline (3 μM) and were reverted after thoroughly washing with physiological saline solution. Portal vein contraction was measured with an isometric force transducer and with an initial tension of 1 g. After two contractions with noradrenaline, performed in order to measure the tissue's basal response, the tested compounds were incubated for 30 minutes and a new contraction was induced.
# hypertense rats = experiment: Test 2: Lowering of the arterial pressure in concious hypertense rats; format: in vivo, rat; details: 1 mg/Kg p.o.; spontaneously hypertense rats, conscious; 3 animals; arterial pressure every 60 minutes during 4 hours
# Description: Test 2: Lowering of the arterial pressure in concious hypertense rats.
# Spontaneously hypertense rats (between 200 and 250 g of body weight) of more than 8 weeks of age have been used. Diastolic and systolic arterial pressure of the rat was measured at the caudal artery using a special sphygnomanometer (Letica 5007 and 5007/4) attached to the animal's tail. To ensure rapid and reliable data, animals were placed in a heating plate at 37° C., with the aim to produce a vasodilation that ensured a better fixation of the rat tail to the transfer chamber. During the experiment, rats are conscious and fixed to a clamp. The tested products were administered orally. Arterial pressure was measured every 60 minutes during 4 hours and 10 minutes before the administration of the tested compound. The decrease of the arterial pressure was calculated for each compound at a dose of 1 mg/Kg, using 3 animals.
# [2] = test system: trachea isolated from guinea pig; experiment: Test 3: Direct relaxation of the trachea isolated from guinea pig; details: Cavia porcellus; 50% of the maximum relaxation; maximum = relaxation by isoproterenol at 1×10^-6 M; cumulative addition; basal tension 0.5 g; 37° C.
# Description: Test 3-Direct relaxation of the trachea isolated from guinea pig.
# This test was performed according to the experimental model described by Emmerson, J. and Mackay, D. (J. Pharm. Pharmacol., 1979, 31, 798). Tracheas were extracted from male guinea pigs of 400 g of body weight, which had been stunned by a blow in the head. Then, tracheas were cut in zigzag and placed into an isolated organ bath (Letica) containing Krebs-Henseleit solution at 37° C. and were bubbled with carbogen (95% O2 and 5% CO2). The relaxation of the trachea was measured using an isometric force transducer. The basal tension was 0.5 g.
IC50 [1],EC50 [2],Compound,Pressure Decrease (hypertense rats)
800 nM,900 nM,CC1(C)C=C(N2CCCC2=O)c2cc(C#N)ccc2C1=O [Compound 30],103 mm Hg
> 10000 nM,78000 nM,"CC1(C)C(=O)c2ccc(Br)cc2[C@@H](N2CCCC2=O)[C@@H]1O (relative stereo) [Compound 18, Trans 6-bromo-2,2-dimethyl-3-hydroxy-4-(2-oxo-1-pyrrolidinyl)-1,2,3,4-tetrahydronaphthalen-1-one]",39 mm Hg
300 nM,,"CC1(C)C(=O)c2ccc(S(=O)(=O)c3ccccc3)cc2[C@@H](n2ccccc2=O)[C@@H]1O (relative stereo) [Compound 60, Trans 4-(1,2-dihydro-2-oxo-1-pyridyl)-2,2-dimethyl-3-hydroxy-6-phenylsulphonyl-1,2,3,4-tetrahydronaphthalen-1-one]",32.5 mm Hg
10000 nM,19000 nM,"CC1(C)C=C(N2CCCC2=O)c2cc(Br)ccc2C1=O [Compound 21, 6-bromo-1,2-dihydro-2,2-dimethyl-4-(2-oxo-1-pyrrolidinyl)naphthalen-1-one]",60.5 mm Hg
21000 nM,,"COc1ccc2c(c1)C(n1ccccc1=O)=CC(C)(C)C2=O [Compound 6, 1,2-dihydro-4-(1,2-dihydro-2-oxo-1-pyridyl)-2,2-dimethyl-6-methoxynaphthalen-1-one]",42.5 mm Hg
1400 nM,1100 nM,"CC1(C)C=C(n2ccccc2=O)c2cc(Cl)ccc2C1=O [Compound 11, 6-chloro-1,2-dihydro-4-(1,2-dihydro-2-oxo-1-pyridyl)-2,2-dimethylnaphthalen-1-one]",53 mm Hg
28000 nM,> 10000 nM,"CC1(C)C(=O)c2ccc(Br)cc2[C@@H](n2ccccc2=O)[C@@H]1O (relative stereo) [Compound 14, Trans 6-bromo-4-(1,2-dihydro-2-oxo-1-pyridyl)-2,2-dimethyl-3-hydroxy-1,2,3,4-tetrahydronaphthalen-1-one]",23 mm Hg
1500 nM,500 nM,"CC1(C)C(=O)c2cc(Cl)c(Cl)cc2[C@@H](n2ccccc2=O)[C@@H]1O (relative stereo) [Compound 57, Trans 6,7-dichloro-4-(1,2-dihydro-2-oxo-1-pyridyl)-2,2-dimethyl-3-hydroxy-1,2,3,4-tetrahydronaphthalen-1-one]",52 mm Hg
3100 nM,> 50000 nM,"CC1(C)C(=O)c2ccc(Br)cc2[C@@H](N2Cc3ccccc3C2=O)[C@@H]1O (relative stereo) [Compound 22, Trans 6-bromo-4-(2,3-dihydro-1-oxo-1H-isoindol-2-yl)-2,2-dimethyl-3-hydroxy-1,2,3,4-tetrahydronaphthalen-1-one]",24 mm Hg
33000 nM,> 100000 nM,"CC(=O)N(C)c1ccc2c(c1)[C@@H](n1ccccc1=O)[C@H](O)C(C)(C)C2=O (relative stereo) [Compound 36, Trans 4-(1,2-dihydro-2-oxo-1-pyridyl)-2,2-dimethyl-3-hydroxy-6-N-methylacetamide-1,2,3,4-tetrahydronaphthalen-1-one]",94 mm Hg
> 10000 nM,,"CC1(C)C=C(n2ccccc2=O)c2ccc(C#N)cc2C1=O [Compound 55, 1,2-dihydro-4-(1,2dihydro-2-oxo-1-pyridyl)-2,2-dimethyl-1-oxonaphthalen-7carbonitrile]",41 mm Hg
> 10000 nM,> 10000 nM,"CC1(C)C=C(N2CCCC2=O)c2cc(Cl)ccc2C1=O [Compound 13, 6-chloro-1,2-dihydro-2,2-dimethyl-4-(2-oxo-1-pyrrolidinyl)naphthalen-1-one]",32 mm Hg
600 nM,100 nM,"CC1(C)C=C(n2ccccc2=O)c2cc(C#N)ccc2C1=O [Compound 26, 1,2-dihydro-4-(1,2-dihydro-2-oxo-1-pyridyl)-2,2-dimethyl-1-oxonaphthalen-6-carbonitrile]",96.5 mm Hg
350 nM,31000 nM,"CC1(C)C=C(n2ccccc2=O)c2cc(C(F)(F)F)ccc2C1=O [Compound 42, 1,2-dihydro-4-(1,2-dihydro-2-oxo-1-pyridyl)-2,2-dimethyl-6-trifluoromethylnaphthalen-1-one]",103 mm Hg
,1000 nM,"CC1(C)C(=O)c2ccc(C(F)(F)F)cc2[C@@H](n2ccccc2=O)[C@@H]1O (relative stereo) [Compound 41, Trans 4-(1,2-dihydro-2-oxo-1-pyridyl)-2,2-dimethyl-3-hydroxy-1,2,3,4-tetrahydro-6-trifluoromethylnaphthalen-1-one]",52.6 mm Hg
4300 nM,1500 nM,"CC(=O)N(C)c1ccc2c(c1)C(n1ccccc1=O)=CC(C)(C)C2=O [Compound 38, 1,2-dihydro-4-(1,2-dihydro-2-oxo-1-pyridyl)-2,2-dimethyl-6N-methylacetamidonaphthalen-1-one]",49.3 mm Hg
2700 nM,,"CC1(C)C=C(n2ccccc2=O)c2ccc(Br)cc2C1=O [Compound 52, 7-bromo-1,2-dihydro-4-(1,2-dihydro-2-oxo-1-pyridyl)-2,2-dimethylnaphthalen-1-one]",37 mm Hg
17000 nM,2500 nM,"CC(=O)N(C)c1ccc2c(c1)C(N1CCCC1=O)=CC(C)(C)C2=O [Compound 40, 1,2-dihydro-2,2-dimethyl-6-N-methylacetamido-4-(2-oxo-1-pyrrolidinyl)naphthalen-1-one]",23 mm Hg
14000 nM,99000 nM,"CC1(C)C(=O)c2ccc(C#N)cc2[C@@H](n2ccccc2=O)[C@@H]1O (relative stereo) [Compound 23, Trans 4(1,2-dihydro-2-oxo-1-pyridyl)-2,2-dimethyl-3-hydroxy-1-oxo-1,2,3,4-tetrahydronaphthalen-6-carbonitrile]",84 mm Hg
980 nM,250 nM,"C#Cc1ccc2c(c1)C(n1ccccc1=O)=CC(C)(C)C2=O [Compound 50, 1,2dihydro-4-(1,2-dihydro-2-oxo-1-pyridyl)-2,2-dimethyl-6-ethynylnaphthalen-1-one]",112 mm Hg
500 nM,200 nM,"CC1(C)C=C(n2ccccc2=O)c2cc(Br)ccc2C1=O [Compound 16, 6-bromo-1,2-dihydro-4-(1,2-dihydro-2-oxo-1-pyridyl)-2,2-dimethylnaphthalen-1-one]",
700 nM,50 nM,CC1(C)C=C(n2ccccc2=O)c2cc(Cl)c(Cl)cc2C1=O [Compound 58],58 mm Hg

Compound,IC50 [1],EC50 [2],Pressure Decrease (hypertense rats)
"CC(=O)O[C@H]1[C@H](n2ccccc2=O)c2cc(C#N)ccc2C(=O)C1(C)C (relative stereo) [Compound 24, Trans 3-acetoxy-4-(1,2-dihydro-2-oxo-1-pyridyl)-2,2-dimethyl-1-oxo-1,2,3,4-tetrahydronaphthalen-6-carbonitrile]",23000 nM,2200 nM,64.7 mm Hg
"CC1(C)C=C(n2ccccc2=O)c2cc(C#C[Si](C)(C)C)ccc2C1=O [Compound 49, 1,2-dihydro-4-(1,2-dihydro-2-oxo-1-pyridyl)-2,2-dimethyl-6-trimethylsilylethynylnaphthalen-1-one]",460 nM,4800 nM,91.5 mm Hg
